What was measured:
[1] = as injection additive; cited from earlier work
[2] = Radiolysis stability of 18F-FDG solutions with mannitol: radiochemical purity by TLC (Examples 13-18, Comparative Example 2); assay type: physicochemical; conditions: added at 2.5 mmol/L or higher concentrations
Procedure: The same procedure as in Comparative Example 1 and Examples 1 through 12 was repeated to obtain a ^18F-FDG stock solution (radioactivity=126.3 GBq). To the ^18F-FDG stock solution, physiological saline was added for dilution so that the resulting solution had 92.5 MBq/mL 4.5 hours after preparation. This gave a ^18F-FDG solution.
To 2 mL of the above-obtained ^18F-FDG solution, the mannitol solutions having different concentrations shown in Table 3 were each added in amounts shown in Table 3, and mixed at room temperature to prepare respective sample solutions.
The above-obtained samples were subjected to TLC analysis on the below conditions immediately after the preparation of ^18F-FDG solution (Comparative Example 2 only), and 4.5 and 8.5 hours after the preparation. Radiochemical purity was obtained based on the area percentage of the ^18F-FDG peak. The radiochemical purity at each time point was compared to one another to evaluate stability of the samples.
TLC plate=Silica Gel 60 F254 (under trade name, manufactured by Merck & Co., Inc.)
Developing solvent=acetonitrile/water=19:1
Detector=Radiochromanizer (JTC-R75-21361, manufactured by Aloka)

glucose transporters = conditions: reported by Heli Teerijoki et al. and A. N. Ouraishi et al.; cited from earlier work
[3] = aqueous solution; reported by Sara Goldstein et al.; cited from earlier work

| Compound | Maximum dose for intravenous injection [1] [mg] | Prevention of the decrease in radiochemical purity of 18F-FDG caused by radiolysis [2] | Substrate for glucose transporters (glucose transporters) | Scavenger of OH radicals [3] |
| --- | --- | --- | --- | --- |
| O=C(CO)[C@@H](O)[C@H](O)[C@H](O)CO [fructose] | 900 | – | – | – |
| OC[C@H]1O[C@@H](O[C@H]2[C@H](O)[C@@H](O)C(O)O[C@@H]2CO)[C@H](O)[C@@H](O)[C@H]1O (stereo partly drawn) [lactose] | 1250 | – | – | – |
| OC[C@H]1O[C@H](O[C@H]2[C@H](O)[C@@H](O)[C@H](O)O[C@@H]2CO)[C@H](O)[C@@H](O)[C@@H]1O [maltose] | 10000 | – | – | – |
| OC[C@@H](O)[C@@H](O)[C@H](O)[C@H](O)CO [mannitol] | 1200 | can significantly prevent the decrease in the radiochemical purity | does not serve as a substrate for glucose transporters | acts as a scavenger of OH radials |
| OC[C@@H](O)[C@@H](O)[C@H](O)[C@@H](O)CO [sorbitol] | 1500 | – | – | – |
| OC[C@@H](O)[C@H](O)[C@@H](O)CO [xylitol] | 200 | – | – | – |

— patent US20080193379A1, “Radioactive Diagnostic Imaging Agent” (Nihon Medi-Physics Co., Ltd., priority 2005, published 2008)
